Measurements from patent publication US20160100579A1, “NEMATICIDAL N-(2-SUBSTITUTED 2-PHENYLETHYL)CARBOXAMIDES AND N-(2-SUBSTITUTED 2-PHENYLETHYL)-THIOCARBOXAMIDES” (priority 2013, published 2016).

Key:
[1] = Measurement of log P values by HPLC on reversed phase columns (EEC directive 79/831 Annex V.A8; methods [a] pH 2.3, [b] pH 2.7, [c] pH 7.8); format: physicochemical
Description: Measurement of log P-values:
Measurement of log P values was performed according EEC directive 79/831 Annex V.A8 by HPLC (High Performance Liquid Chromatography) on reversed phase columns with the following methods:
^[a] Measurement was done at pH 2.3 with 0.1% phosphoric acid and acetonitrile as eluent with a linear gradient from 10% acetonitrile to 95% acetonitrile.
^[b] measurement of LC-MS was done at pH 2.7 with 0.1% formic acid in water and with acetonitrile (contains 0.1% formic acid) as eluent with a linear gradient from 10% acetonitrile to 95% acetonitrile.
^[c] Measurement with LC-MS was done at pH 7.8 with 0.001 molar ammonium hydrogen carbonate solution in water as eluent with a linear gradient from 10% acetonitrile to 95% acetonitrile.
Calibration was done with not branched alkan2-ones (with 3 to 16 carbon atoms) with known log P-values (measurement of log P values using retention times with linear interpolation between successive alkanones).. lambda-maX-values were determined using UV-spectra from 200 nm to 400 nm and the peak values of the chromatographic signals.

Haemonchus contortus = Haemonchus contortus - Test (HAEMCO); format: in vivo; conditions: after 5 days, 100% = all larvae killed
Description: Haemonchus contortus—Test (HAEMCO)
Solvent: dimethyl sulfoxide
To produce a suitable preparation of active compound, 10 mg of active compound are dissolved in 0.5 ml solvent, and the concentrate is diluted with “Ringer's solution” to the desired concentration.
Approximately 40 larvae of the red stomach worm (Haemonchus contortus) are transferred into a test tube containing compound solution.
After 5 days percentage of larval mortality is recorded. 100% efficacy means all larvae are killed, 0% efficacy means no larvae are killed.

[2] = method [a]: HPLC, pH 2.3, 0.1% phosphoric acid / acetonitrile
[3] = method [b]: LC-MS, pH 2.7, 0.1% formic acid in water / acetonitrile
[4] = method [c]: LC-MS, pH 7.8, 0.001 molar ammonium hydrogen carbonate / acetonitrile
[5] = method [b]: LC-MS at pH 2.7, 0.1% formic acid in water / acetonitrile
[6] = method [c]: LC-MS at pH 7.8, 0.001 molar ammonium hydrogen carbonate in water / acetonitrile

Structure (SMILES)	log P [1, 5]	log P [1, 6]	other results
C#CCOC(CNC(=O)c1sccc1C)c1ccc(Cl)cc1 (centres unmarked) [Compound 1]			logP [1, 2]: 3.18^[a]; activity (efficacy: larval mortality) (Haemonchus contortus; 100 ppm): 80%
COC(c1ccc(Cl)cc1Cl)C(C)NC(=O)c1cccnc1Cl (centres unmarked) [Compound 34]			activity (efficacy: larval mortality) (Haemonchus contortus; 100 ppm): 90%
COC(c1ccc(Cl)cc1Cl)C(C)NC(=O)c1sccc1C (centres unmarked) [Compound 58]			logP [1, 3]: 4.05^[b]; logP [1, 4]: 4.02^[c];; activity (efficacy: larval mortality) (Haemonchus contortus; 100 ppm): 80%
COC(c1ccc(Cl)cc1)C(C)NC(=O)c1ccoc1C (centres unmarked) [Compound 59]			logP [1, 3]: 3.21^[b]; activity (efficacy: larval mortality) (Haemonchus contortus; 100 ppm): 90%
COC(c1ccc(Cl)cc1)C(C)NC(=O)c1ccsc1Br (centres unmarked) [Compound 63]			logP [1, 3]: 3.68^[b]; activity (efficacy: larval mortality) (Haemonchus contortus; 100 ppm): 100%
COC(c1ccc(Cl)cc1)C(C)NC(=O)c1sccc1Cl (centres unmarked) [Compound 66]			logP [1, 3]: 3.83^[b]; logP [1, 4]: 3.83^[c];; activity (efficacy: larval mortality) (Haemonchus contortus; 20 ppm): 90%
COC(CNC(=O)c1ccsc1Cl)c1ccc(Cl)cc1 (centres unmarked) [Compound 70]			logP [1, 3]: 3.15^[b]; logP [1, 4]: 3.13^[c];; activity (efficacy: larval mortality) (Haemonchus contortus; 100 ppm): 100%
COC(CNC(=O)c1ccoc1I)c1ccc(Cl)cc1 (centres unmarked) [Compound 71]			logP [1, 3]: 2.92^[b]; logP [1, 4]: 2.90^[c];; activity (efficacy: larval mortality) (Haemonchus contortus; 100 ppm): 90%
COC(c1ccc(Cl)cc1Cl)C1(NC(=O)c2ccccc2Cl)CC1 (centres unmarked) [Compound 154]	3.76^[b]	3.71^[c];	
COC(c1ccc(Cl)cc1Cl)C1(NC(=O)c2ccccc2F)CC1 (centres unmarked) [Compound 155]	3.78^[b]	3.75^[c];	
COC(c1ccc(Cl)cc1Cl)C(C)N(C(=O)c1ncc(Cl)cc1C(F)(F)F)C1CC1 (centres unmarked) [Compound 159]	5.39^[b]		
COC(CN(C(=O)c1cccnc1C(F)(F)F)C1CC1)c1ccc(Cl)cc1Cl (centres unmarked) [Compound 166]	4.16^[b]		
COC(CN(C(=O)c1cccnc1Cl)C1CC1)c1ccc(Cl)cc1Cl (centres unmarked) [Compound 167]	3.76^[b]		
COC(CN(C(=O)c1nccnc1C(F)(F)F)C1CC1)c1ccc(Cl)cc1Cl (centres unmarked) [Compound 168]	4.37^[b]		
COC(CN(C(=O)C1=C(C)OCCS1)C1CC1)c1ccc(Cl)cc1Cl (centres unmarked) [Compound 169]	4.11^[b]		
COC(c1ccc(Cl)cc1Cl)C(C)N(C(=O)c1cccnc1Cl)C1CC1 (centres unmarked) [Compound 170]	4.03^[b]		
COC(c1ccc(Cl)cc1Cl)C(C)N(C(=O)c1cccnc1C(F)F)C1CC1 (centres unmarked) [Compound 171]	3.92^[b]		
COC(c1ccc(Cl)cc1Cl)C(C)N(C(=O)C1=C(C)OCCS1)C1CC1 (centres unmarked) [Compound 172]	4.30^[b]		
COC(c1ccc(Cl)cc1Cl)C(C)N(C(=O)c1cccnc1C(F)(F)F)C1CC1 (centres unmarked) [Compound 173]	4.44^[b]		
COC(c1ccc(Cl)cc1Cl)C(C)N(C(=O)c1nccnc1C(F)(F)F)C1CC1 (centres unmarked) [Compound 174]	4.69^[b]		
COC(c1ccc(Cl)cc1Cl)C(C)(C)N(C)C(=O)c1ccccc1C(F)(F)F (centres unmarked) [Compound 182]	5.42^[b]	5.34^[c];	
COC(c1ccc(F)cc1)C(C)NC(=O)c1ccccc1F (centres unmarked) [Compound 183]	3.04^[b]	3.02^[c];	
COC(c1ccc(F)cc1)C(C)NC(=O)c1cccnc1Cl (centres unmarked) [Compound 184]	2.25^[b]	2.23^[c];	
COC(c1ccc(F)cc1)C(C)NC(=O)c1c(F)cccc1F (centres unmarked) [Compound 185]	2.80^[b]	2.76^[c];	
COC(c1ccc(F)cc1)C(C)NC(=O)c1ccccc1Br (centres unmarked) [Compound 186]	2.99^[b]	2.95^[c];	
COC(c1ccc(F)cc1)C(C)NC(=O)c1ccccc1C (centres unmarked) [Compound 188]	2.91^[b]	2.86^[c];	
COC(c1ccc(F)cc1)C(C)NC(=O)c1c(F)cccc1C(F)(F)F (centres unmarked) [Compound 189]	3.24^[b]	3.19^[c];	
COC(c1ccc(F)cc1)C(C)NC(=O)c1ccccc1C(F)(F)F (centres unmarked) [Compound 190]		3.16^[c]	

Structure (SMILES)	log P [1, 5]	log P [1, 6]	other results
CCOC(c1ccc(Cl)cc1Cl)C(C)NC(=O)c1c(F)cccc1C(F)(F)F (centres unmarked) [Compound 193]	4.55^[b]	4.53^[c];	
CCOC(c1ccc(Cl)cc1Cl)C(C)NC(=O)c1ccccc1F (centres unmarked) [Compound 195]	4.66^[b]	4.65^[c];	
CCOC(c1ccc(Cl)cc1Cl)C(C)NC(=O)c1c(F)cccc1F (centres unmarked) [Compound 196]	4.14^[b]	4.13^[c];	
CCOC(c1ccc(Cl)cc1Cl)C(C)NC(=O)c1ccccc1I (centres unmarked) [Compound 197]	4.51^[b]	4.56^[c];	
CCOC(c1ccc(Cl)cc1Cl)C(C)NC(=O)c1ccccc1C (centres unmarked) [Compound 198]	4.35^[b]	4.33^[c];	
CCOC(c1ccc(Cl)cc1Cl)C(C)NC(=O)c1ccccc1C(F)F (centres unmarked) [Compound 199]	4.45^[b]	4.40^[c];	
CCOC(c1ccc(Cl)cc1Cl)C(C)NC(=O)c1ccccc1Br (centres unmarked) [Compound 200]	4.43^[b]	4.39^[c];	
CCOC(c1ccc(Cl)cc1Cl)C(C)NC(=O)c1ccccc1Cl (centres unmarked) [Compound 201]	4.35^[b]	4.39^[c];	
CCOC(c1ccc(Cl)cc1Cl)C(C)NC(=O)c1sc(C)nc1C(F)(F)F (centres unmarked) [Compound 204]	4.37^[b]	4.42^[c];	
CCOC(c1ccc(Cl)cc1Cl)C(C)NC(=O)c1cccnc1 (centres unmarked) [Compound 206]	2.89^[b]	3.03^[c];	
COC(c1ccccc1Cl)C(C)NC(=O)c1cccnc1 (centres unmarked) [Compound 207]	1.94^[b]	2.09^[c];	
COC(c1ccc(Cl)cc1Cl)C1(NC(=O)c2ccccc2[N+](=O)[O-])CC1 (centres unmarked) [Compound 211]	3.33^[b]	3.26^[c];	
COC(c1ccccc1Cl)C(C)NC(=O)c1sc(C)nc1C(F)(F)F (centres unmarked) [Compound 212]	3.34^[b]	3.31^[c];	
CCOC(c1ccc(Cl)cc1Cl)C(C)NC(=O)c1nccnc1Cl (centres unmarked) [Compound 214]	3.89^[b]	3.85^[c];	
C#CCOC(c1ccc(Cl)c(Cl)c1)C(C)(C)NC(=O)c1sccc1C (centres unmarked) [compound 3]			logP [1, 2]: 4.58^[a]
C#CCOC(c1ccc(Cl)cc1)C(C)(C)NC(=O)c1sccc1C (centres unmarked) [compound 4]			logP [1, 2]: 4.22^[a]
Cc1ccc(COC(CNC(=O)c2sccc2C)c2ccc(Cl)cc2)cc1 (centres unmarked) [compound 5]			logP [1, 2]: 4.62^[a]
Cc1ccsc1C(=O)NCC(OCC(C)C)c1ccc(Cl)cc1 (centres unmarked) [compound 7]			logP [1, 2]: 4.49^[a]
COC(c1ccc(Cl)cc1Cl)C(C)NC(=O)c1c(C)nn(C)c1F (centres unmarked) [compound 13]			logP [1, 3]: 3.13^[b]
COC(c1ccc(Cl)cc1Cl)C(C)NC(=O)c1c(C(F)F)nn(C)c1F (centres unmarked) [compound 14]			logP [1, 3]: 3.65^[b]
COC(c1ccc(Cl)cc1Cl)C(C)NC(=O)c1cn(C)nc1C(F)F (centres unmarked) [compound 17]			logP [1, 3]: 3.25^[b]
COC(c1ccc(Cl)cc1Cl)C(C)NC(=O)c1c(F)c(C)nn1C(F)F (centres unmarked) [compound 114]			logP [1, 3]: 4.57^[b]
COC(c1ccc(Cl)cc1Cl)C(C)NC(=O)c1cc(C)nn1C(F)F (centres unmarked) [compound 115]			logP [1, 3]: 3.73^[b]
COC(c1ccc(Cl)cc1Cl)C1(NC(=O)c2ccnn2C(F)F)CC1 (centres unmarked) [compound 121]	3.46^[b]		
COC(c1ccc(Cl)cc1Cl)C1(NC(=O)c2cc([N+](=O)[O-])nn2C(F)F)CC1 (centres unmarked) [compound 122]	3.94^[b]		
COC(c1ccc(Cl)cc1Cl)C(C)NC(=O)c1cc(C)nn1C (centres unmarked) [compound 124]	3.08^[b]		
COC(c1ccc(Cl)cc1Cl)C1(NC(=O)c2cc(C)nn2C)CC1 (centres unmarked) [compound 125]	3.05^[b]		
